The source of these data is US12590057B2, “Crystalline complexes” (Theracryf PLC, priority 2020, dated 2026).

Series [1] can be described thus: Variable humidity XRPD (VH-XRPD) at 25° C. Type of series: physicochemical. Particulars: 25° C. The text has this: Non-ambient conditions: XRPD diffractograms were collected on a PANalytical Empyrean diffractometer using Cu Kα radiation (45 kV, 40 mA) in reflection geometry. The instrument is fitted with an Anton Paar CHC plus^+ stage fitted with graphite/Kapton windows and equipped with air cooling coupled with a proUmid MHG32 Modular Humidity Generator or a low vacuum pump system using an Edwards RV3 pump. A programmable divergence slit (in automatic mode), with a 10 mm fixed incident beam mask, Ni filter and 0.04 rad Soller slits were used on the incident beam. A PIXcel^3D detector, placed on the diffracted beam, was fitted with a programmable anti-scatter slit (in automatic mode) and 0.04 rad Soller slits. The software used for data collection was X'Pert Data Collector and the data analysed and presented using Diffrac Plus EVA or Highscore Plus. For variable humidity (VH-XRPD) experiments the samples were prepared and analysed in an Anton Paar chromed low-profile sample holder with silicon wafer insert. The measurement parameters are as per the standard screening data collection method (detailed above). For all variable humidity XRPD experiments, a pattern was recorded every hour. […] The Form 1 sample was loaded into the VH chamber, which was set to 40% RH and 25° C. and then the RH was decreased in 10% decrements to 10% RH followed by increasing the RH in 10% increments to 90% RH, while maintaining the temperature at 25° C. […] The sample then quickly transitioned from Form 1 at 80% RH to Form 2 at 90% RH. A variable humidity (VH) XRPD experiment was performed to examine how Form 3 exists under different RH conditions. […] The sample was stable as Form 2 for 8 hours at 80% RH. At 90% RH Form 2 existed for 2 hours before the sample deliquesced in the humidity chamber.

The nature of series [2]: Typical water content of the crystalline forms. Type of series: physicochemical. The method, then: The water content of a sample can be determined by any suitable means as will be apparent to one of skill in the art. In one embodiment, the water content is determined by Karl-Fischer titration. In one embodiment, the water content is determined by thermogravimetric analysis (TGA). In one embodiment, the water content is determined by gravimetric vapour sorption (GVS). After formation of the crystalline complex according to the invention, the water content may be as low as 1-3% w/w. However, after exposure of the complex to ambient conditions (25° C., 40% RH) the material typically equilibrates (e.g. over a period of 3-7 days) to a water content of up to 5-7% w/w. It has been found, however, that Form 3, once equilibrated to 5-7% w/w water, maintains physical form at 60% RH making it unexpectedly stable over the 0% and 60% humidity range.

For `C[S+]([O-])CCCCN=C=S.OCC1OC2OC3C(CO)OC(OC4C(CO)OC(OC5C(CO)OC(OC6C(CO)OC(OC7C(CO)OC(OC1C(O)C2O)C(O)C7O)C(O)C6O)C(O)C5O)C(O)C4O)C(O)C3O` (centres unmarked) [Form 2], the “Stability at 25° C. (RH range in which the form is stable)” value in series [1] is “Above 80% RH”. In addition, the Typical water content in series [2] is reported as 13-20 % w/w.
